Measurements reported in ChEMBL document CHEMBL3885881, “DrugMatrix”.

Species on record: Rattus norvegicus
Experiment: DrugMatrix - Regimen: Daily Repeat
Assay type: toxicity, organism-based, Sprague-Dawley
Parameters: regimen Daily Repeat, gender Male, age 6-8 weeks
Conditions: in vivo, po, route oral GAVAGE, vehicle .5 % CMC; for ABSOLUTE BASOPHIL / ABSOLUTE EOSINOPHIL / ABSOLUTE LYMPHOCYTE / ABSOLUTE MONOCYTE / ABSOLUTE SEGMENTED NEUTROPHIL / BASOPHIL / EOSINOPHIL / ERYTHROCYTE COUNT / HEMATOCRIT / HEMOGLOBIN / LEUKOCYTE COUNT / LYMPHOCYTE / MEAN CORPUSCULAR HEMOGLOBIN / MEAN CORPUSCULAR HEMOGLOBIN CONCENTRATION / MEAN CORPUSCULAR VOLUME / MONOCYTE / NEUTROPHIL / NUCLEATED RED BLOOD CELLS / PLATELET COUNT: tissue Blood; for ALANINE AMINOTRANSFERASE / ALBUMIN / ALKALINE PHOSPHATASE / ASPARTATE AMINOTRANSFERASE / BLOOD UREA NITROGEN / CARBON DIOXIDE / CHLORIDE / CHOLESTEROL / CREATINE PHOSPHOKINASE / CREATININE / GLUCOSE / LACTATE DEHYDROGENASE / LIPASE / PHOSPHORUS / POTASSIUM / SODIUM / TOTAL BILIRUBIN / TOTAL PROTEIN / URIC ACID: tissue Plasma
[1] = 50 mg/kg, 72 h, dose level Low, time 3 day
[2] = 50 mg/kg, 120 h, dose level Low, time 5 day
[3] = 350 mg/kg, 72 h, dose level High, time 3 day
[4] = 350 mg/kg, 120 h, dose level High, time 5 day

Cc1cccc(C)c1OCC(C)N (configuration not stated) [MEXILETINE]
ABSOLUTE BASOPHIL [1]: 0 CELLS/uL
ABSOLUTE EOSINOPHIL [1]: 76.67 CELLS/uL
ABSOLUTE LYMPHOCYTE [1]: 11625.67 CELLS/uL
ABSOLUTE MONOCYTE [1]: 164.33 CELLS/uL
ABSOLUTE SEGMENTED NEUTROPHIL [1]: 733.33 CELLS/uL
BASOPHIL [1]: 0%
EOSINOPHIL [1]: 0.67%
ERYTHROCYTE COUNT [1]: 5.83 x10E6/uL
HEMATOCRIT [1]: 36.67%
HEMOGLOBIN [1]: 13.2 G/DL
LEUKOCYTE COUNT [1]: 12.6 x10E3/uL
LYMPHOCYTE [1]: 92.33%
MEAN CORPUSCULAR HEMOGLOBIN [1]: 22.63 pg
MEAN CORPUSCULAR HEMOGLOBIN CONCENTRATION [1]: 36 G/DL
MEAN CORPUSCULAR VOLUME [1]: 62.9 fL
MONOCYTE [1]: 1.33%
NEUTROPHIL [1]: 5.67%
NUCLEATED RED BLOOD CELLS [1]: 0 /100WBC
PLATELET COUNT [1]: 1579.67 x10E3/uL
ALANINE AMINOTRANSFERASE [1]: 39.67 u/L
ALBUMIN [1]: 4.47 G/DL
ALKALINE PHOSPHATASE [1]: 347.33 u/L
ASPARTATE AMINOTRANSFERASE [1]: 70.33 u/L
BLOOD UREA NITROGEN [1]: 15 mg/dL
CARBON DIOXIDE [1]: 26.67 mmol/L
CHLORIDE [1]: 103.33 MEQ/L
CHOLESTEROL [1]: 73 mg/dL
CREATINE PHOSPHOKINASE [1]: 249.33 u/L
CREATININE [1]: 0.18 mg/dL
GLUCOSE [1]: 168.67 mg/dL
LACTATE DEHYDROGENASE [1]: 90 u/L
LIPASE [1]: 9 u/L
PHOSPHORUS [1]: 13.23 mg/dL
POTASSIUM [1]: 6.67 MEQ/L
SODIUM [1]: 144.43 MEQ/L
TOTAL BILIRUBIN [1]: 0.2 mg/dL
TOTAL PROTEIN [1]: 6 G/DL
URIC ACID [1]: 2.37 mg/dL
ABSOLUTE BASOPHIL [2]: 0 CELLS/uL
ABSOLUTE EOSINOPHIL [2]: 311.67 CELLS/uL
ABSOLUTE LYMPHOCYTE [2]: 17277 CELLS/uL
ABSOLUTE MONOCYTE [2]: 358.33 CELLS/uL
ABSOLUTE SEGMENTED NEUTROPHIL [2]: 1686.33 CELLS/uL
BASOPHIL [2]: 0%
EOSINOPHIL [2]: 1.67%
ERYTHROCYTE COUNT [2]: 5.61 x10E6/uL
HEMATOCRIT [2]: 35.37%
HEMOGLOBIN [2]: 13.43 G/DL
LEUKOCYTE COUNT [2]: 19.63 x10E3/uL
LYMPHOCYTE [2]: 88%
MEAN CORPUSCULAR HEMOGLOBIN [2]: 23.97 pg
MEAN CORPUSCULAR HEMOGLOBIN CONCENTRATION [2]: 38 G/DL
MEAN CORPUSCULAR VOLUME [2]: 63.13 fL
MONOCYTE [2]: 1.67%
NEUTROPHIL [2]: 8.67%
NUCLEATED RED BLOOD CELLS [2]: 0 /100WBC
PLATELET COUNT [2]: 1342.33 x10E3/uL
ALANINE AMINOTRANSFERASE [2]: 52 u/L
ALBUMIN [2]: 4.23 G/DL
ALKALINE PHOSPHATASE [2]: 414.33 u/L
ASPARTATE AMINOTRANSFERASE [2]: 89 u/L
BLOOD UREA NITROGEN [2]: 18.67 mg/dL
CARBON DIOXIDE [2]: 24.33 mmol/L
CHLORIDE [2]: 106.67 MEQ/L
CHOLESTEROL [2]: 62 mg/dL
CREATINE PHOSPHOKINASE [2]: 325.67 u/L
CREATININE [2]: 0.19 mg/dL
GLUCOSE [2]: 163.67 mg/dL
LACTATE DEHYDROGENASE [2]: 469 u/L
LIPASE [2]: 8.67 u/L
PHOSPHORUS [2]: 12.77 mg/dL
POTASSIUM [2]: 6.24 MEQ/L
SODIUM [2]: 144.53 MEQ/L
TOTAL BILIRUBIN [2]: 0.3 mg/dL
TOTAL PROTEIN [2]: 6.4 G/DL
URIC ACID [2]: 1.83 mg/dL
ABSOLUTE BASOPHIL [3]: 0 CELLS/uL
ABSOLUTE EOSINOPHIL [3]: 77.33 CELLS/uL
ABSOLUTE LYMPHOCYTE [3]: 8910.33 CELLS/uL
ABSOLUTE MONOCYTE [3]: 236 CELLS/uL
ABSOLUTE SEGMENTED NEUTROPHIL [3]: 643 CELLS/uL
BASOPHIL [3]: 0%
EOSINOPHIL [3]: 0.67%
ERYTHROCYTE COUNT [3]: 6.04 x10E6/uL
HEMATOCRIT [3]: 38.2%
HEMOGLOBIN [3]: 14.37 G/DL
LEUKOCYTE COUNT [3]: 9.87 x10E3/uL
LYMPHOCYTE [3]: 90.33%
MEAN CORPUSCULAR HEMOGLOBIN [3]: 23.87 pg
MEAN CORPUSCULAR HEMOGLOBIN CONCENTRATION [3]: 37.63 G/DL
MEAN CORPUSCULAR VOLUME [3]: 63.37 fL
MONOCYTE [3]: 2.33%
NEUTROPHIL [3]: 6.67%
NUCLEATED RED BLOOD CELLS [3]: 0.33 /100WBC
PLATELET COUNT [3]: 1205.33 x10E3/uL
ALANINE AMINOTRANSFERASE [3]: 60.67 u/L
ALBUMIN [3]: 5.13 G/DL
ALKALINE PHOSPHATASE [3]: 464.67 u/L
ASPARTATE AMINOTRANSFERASE [3]: 73.67 u/L
BLOOD UREA NITROGEN [3]: 13 mg/dL
CARBON DIOXIDE [3]: 27.33 mmol/L
CHLORIDE [3]: 102 MEQ/L
CHOLESTEROL [3]: 86 mg/dL
CREATINE PHOSPHOKINASE [3]: 277.67 u/L
CREATININE [3]: 0.21 mg/dL
GLUCOSE [3]: 139.67 mg/dL
LACTATE DEHYDROGENASE [3]: 118 u/L
LIPASE [3]: 9 u/L
PHOSPHORUS [3]: 10.8 mg/dL
POTASSIUM [3]: 5.61 MEQ/L
SODIUM [3]: 145.8 MEQ/L
TOTAL BILIRUBIN [3]: 0.23 mg/dL
TOTAL PROTEIN [3]: 7.07 G/DL
URIC ACID [3]: 0.77 mg/dL
ABSOLUTE BASOPHIL [4]: 0 CELLS/uL
ABSOLUTE EOSINOPHIL [4]: 203 CELLS/uL
ABSOLUTE LYMPHOCYTE [4]: 12514 CELLS/uL
ABSOLUTE MONOCYTE [4]: 136 CELLS/uL
ABSOLUTE SEGMENTED NEUTROPHIL [4]: 747 CELLS/uL
BASOPHIL [4]: 0%
EOSINOPHIL [4]: 1.5%
ERYTHROCYTE COUNT [4]: 6.13 x10E6/uL
HEMATOCRIT [4]: 38%
HEMOGLOBIN [4]: 14.05 G/DL
LEUKOCYTE COUNT [4]: 13.6 x10E3/uL
LYMPHOCYTE [4]: 92%
MEAN CORPUSCULAR HEMOGLOBIN [4]: 22.9 pg
MEAN CORPUSCULAR HEMOGLOBIN CONCENTRATION [4]: 37 G/DL
MEAN CORPUSCULAR VOLUME [4]: 62.05 fL
MONOCYTE [4]: 1%
NEUTROPHIL [4]: 5.5%
NUCLEATED RED BLOOD CELLS [4]: 0 /100WBC
PLATELET COUNT [4]: 1422.5 x10E3/uL
ALANINE AMINOTRANSFERASE [4]: 55 u/L
ALBUMIN [4]: 4.35 G/DL
ALKALINE PHOSPHATASE [4]: 464 u/L
ASPARTATE AMINOTRANSFERASE [4]: 93.5 u/L
BLOOD UREA NITROGEN [4]: 15 mg/dL
CARBON DIOXIDE [4]: 24 mmol/L
CHLORIDE [4]: 105 MEQ/L
CHOLESTEROL [4]: 59 mg/dL
CREATINE PHOSPHOKINASE [4]: 283.5 u/L
CREATININE [4]: 0.22 mg/dL
GLUCOSE [4]: 182.5 mg/dL
LACTATE DEHYDROGENASE [4]: 152 u/L
LIPASE [4]: 8.5 u/L
PHOSPHORUS [4]: 12.7 mg/dL
POTASSIUM [4]: 5.83 MEQ/L
SODIUM [4]: 145.35 MEQ/L
TOTAL BILIRUBIN [4]: 0.2 mg/dL
TOTAL PROTEIN [4]: 6.4 G/DL
URIC ACID [4]: 2 mg/dL
